Source: publication PMC10073126, “Levosimendan inhibits disulfide tau oligomerization and ameliorates tau pathology in Tau^P301L-BiFC mice” (Experimental & Molecular Medicine, 2023)

Experiments:
[1] = Cell viability of tau-BiFC cells (number of nuclei); type: cell-based, human; details: human, HEK293 Tau-BiFC cells, 48 h of treatment
Description: (§1) HEK293 Tau-BiFC cells were maintained in Dulbecco’s modified Eagle medium (DMEM) supplemented with 10% fetal bovine serum (FBS), 100 units/mL penicillin, 100 µg/mL streptomycin and 100 µg/mL Geneticin (G418) in a humidified atmosphere containing 5% CO2 at 37 °C. Tau-BiFC cells were activated by treatment with FK (30 μM) or tauK18^P301L (5 μg/mL).
(§2) For screening of FDA-approved & Passed Phase I Drug Library, tau-BiFC cells were plated on µ-clear 384-well plates. The next day, the cells were cotreated with forskolin and 1,018 library compounds at a concentration of 10 µM. MB and LMTM (3 µM) were used as positive controls. After 46 h, nuclei were counterstained with Hoechst (Invitrogen). BiFC (λex = 460–490 nm and λem = 500–550 nm) and Hoechst (λex = 355–385 nm and λem = 430–500 nm) fluorescence images were acquired automatically by using Operetta® (PerkinElmer). BiFC fluorescence intensity and the number of nuclei were quantified using Harmony 3.1 software (PerkinElmer). Integrated tau-BiFC intensity represents the area of selected cell X mean fluorescence intensity. The means and standard deviations (S.D.) of BiFC fluorescence intensities and the number of nuclei were plotted using GraphPad Prism.

[2] = 1H NMR of reaction with N-acetyl-L-cysteine methyl ester; details: room temperature
Description: NMR analysis was performed at 25 °C and recorded in δ units relative to deuterated solvent as an internal reference using a 400 MHz NMR instrument (Bruker). Deuterated phosphate-buffered saline (d-PBS) was prepared at a concentration of 50 mM (D2O + H2O, 1:1, v/v). Levosimendan (50 mg, […], 1 equivalent) reacted with N-acetyl-L-cysteine methyl ester (38 mg, […], 1.2 equivalent) in 10 mL of d-PBS/DMSO-d6 (1:1, v/v) at room temperature, and the reaction was checked at various time points. For the reversibility study, the reaction mixture was diluted ten times with d-PBS/DMSO-d6 (1:1, v/v) and monitored at room temperature.

[3] = test system: tau cysteines; assay: Covalent binding to tau (14C autoradiography, MALDI-TOF of R1-R4 peptides); details: repeat domain:levosimendan 1:10, RT
Description: TauK18 (1 mg/mL, 72 μM) was incubated with ^14C-levosimendan (720 μM) in PBS containing 5% DMSO at RT for 2 h. Then, the mixture was separated on a 15% SDS–PAGE gel under nonreducing conditions and stained with Coomassie blue. For autoradiography, the SDS–PAGE gel was transferred to a PVDF membrane and scanned by Typhoon FLA 7000 IP (GE Healthcare).
Each repeat domain (R1, R2, R3, R4, R2-C291S or R3-C322S, 150 μM) was incubated with levosimendan (molar ratio 1:10 of a tau repeat domain: levosimendan) at RT for 37 h. The samples were mixed with matrix solution (10 mg mL^−1 sinapinic acid in 0.1% (v/v) trifluoroacetic acid/CAN) at a ratio of 1:1. The mixtures were directly spotted onto the MALDI target and dried. Mass spectra were acquired in reflection/linear positive ion mode in the m/z range of 2000–100,000 using an Ultraflex III TOF/TOF mass spectrometer controlled by Flex Control 3.0 (Bruker Daltonics). The default operating conditions were as follows: ion source 1, 25.0 kV; ion source 2, 23.0 kV; lens voltage, 6.0 kV; laser repetition rate = 100 Hz. All spectra were generated automatically in the instrument software and based on averaging 1000 shots from 10 nonoverlapping positions (100 shots/position).

[4] = test system: HEK293 Tau-BiFC cells; assay: Cell viability of tau-BiFC cells (number of nuclei); type: cell-based, human; details: 48 h of treatment
Description: as §1, §2

[5] = Tau-BiFC^ON by forskolin (30 μM)
[6] = Tau-BiFC^ON by tauK18^P301L (5 μg/mL)

| SMILES | GI50 at 48 h [1, 5] [µM] | GI50 at 48 h [1, 6] [µM] | Time to almost complete restoration of levosimendan upon ten-fold dilution ([2]; reaction mixture diluted ten times) [days] | Time to complete formation of the levosimendan-cysteine conjugate ([2]; with N-acetyl-L-cysteine methyl ester) [h] | Covalent attachment to tau repeat domains (MALDI-mass spectrometry) [3] | GI50 [4, 5] [µM] | GI50 [4, 6] [µM] |
| --- | --- | --- | --- | --- | --- | --- | --- |
| C[C@@H]1CC(=O)NN=C1c1ccc(NN=C(C#N)C#N)cc1 [Levosimendan] | 124 ± 0.3 | 101.3 ± 0.4 | 5 | ≤ 2 | covalently attached to the R2 and R3 domains |  |  |
| CN(C)c1ccc2c(c1)Sc1cc(N(C)C)ccc1N2.CS(=O)(=O)O.CS(=O)(=O)O [LMTM, leucomethylene blue mesylate] |  |  |  |  |  | 6.4 ± 0.3 | 6.6 ± 0.3 |
